# Measured values published in US12168763B2, “Microorganisms and methods for reducing bacterial contamination” (Melio Peptide Systems Inc., priority 2020, dated 2024).
# Tested on: L. fermentum NCCB 46038
# Assay: Soft-agar overlay assay of S. cerevisiae BY4742 secreting persulcatusin variants from pHVXU plasmids
# Settings: alanine scanning of persulcatusin; relative to wild-type; soft-agar overlay
row,Substance,Change in activity
1,"Engineered persulcatusin with [Mutation R38A, Engineered persulcatusin with [R38A]]",+
2,C4A: persulcatusin (SEQ ID NO: 1) alanine-scan variant C4A (GFGAPFNQGACHRHCRSIGRRGGYCAGLFKQTCTCYSR; listed as Ixodes persulcatus) [Mutation C4A],−
3,Y36A: persulcatusin (SEQ ID NO: 1) alanine-scan variant Y36A (GFGCPFNQGACHRHCRSIGRRGGYCAGLFKQTCTCASR; listed as Ixodes persulcatus) [Mutation Y36A],−
4,T34A: persulcatusin (SEQ ID NO: 1) alanine-scan variant T34A (GFGCPFNQGACHRHCRSIGRRGGYCAGLFKQTCACYSR; listed as Ixodes persulcatus) [Mutation T34A],−
5,N7A: persulcatusin (SEQ ID NO: 1) alanine-scan variant N7A (GFGCPFAQGACHRHCRSIGRRGGYCAGLFKQTCTCYSR; listed as Ixodes persulcatus) [Mutation N7A],−
6,"Engineered persulcatusin with [Mutation R16A, Engineered persulcatusin with [R16A]]",+
7,H12A: persulcatusin (SEQ ID NO: 1) alanine-scan variant H12A (GFGCPFNQGACARHCRSIGRRGGYCAGLFKQTCTCYSR; listed as Ixodes persulcatus) [Mutation H12A],−
8,Q31A: persulcatusin (SEQ ID NO: 1) alanine-scan variant Q31A (GFGCPFNQGACHRHCRSIGRRGGYCAGLFKATCTCYSR; listed as Ixodes persulcatus) [Mutation Q31A],−
9,G27A: persulcatusin (SEQ ID NO: 1) alanine-scan variant G27A (GFGCPFNQGACHRHCRSIGRRGGYCAALFKQTCTCYSR; listed as Ixodes persulcatus) [Mutation G27A],−
10,"Engineered persulcatusin with [Mutation R21A, Engineered persulcatusin with [R21A]]",+
11,C11A: persulcatusin (SEQ ID NO: 1) alanine-scan variant C11A (GFGCPFNQGAAHRHCRSIGRRGGYCAGLFKQTCTCYSR; listed as Ixodes persulcatus) [Mutation C11A],−
12,F2A: persulcatusin (SEQ ID NO: 1) alanine-scan variant F2A (GAGCPFNQGACHRHCRSIGRRGGYCAGLFKQTCTCYSR; listed as Ixodes persulcatus) [Mutation F2A],−
13,K30A: persulcatusin (SEQ ID NO: 1) alanine-scan variant K30A (GFGCPFNQGACHRHCRSIGRRGGYCAGLFAQTCTCYSR; listed as Ixodes persulcatus) [Mutation K30A],−
14,C33A: persulcatusin (SEQ ID NO: 1) alanine-scan variant C33A (GFGCPFNQGACHRHCRSIGRRGGYCAGLFKQTATCYSR; listed as Ixodes persulcatus) [Mutation C33A],−
15,"Engineered persulcatusin with [Mutation F6A, Engineered persulcatusin with [F6A]]",+
16,S17A: persulcatusin (SEQ ID NO: 1) alanine-scan variant S17A (GFGCPFNQGACHRHCRAIGRRGGYCAGLFKQTCTCYSR; listed as Ixodes persulcatus) [Mutation S17A],−
17,Y24A: persulcatusin (SEQ ID NO: 1) alanine-scan variant Y24A (GFGCPFNQGACHRHCRSIGRRGGACAGLFKQTCTCYSR; listed as Ixodes persulcatus) [Mutation Y24A],−
18,"Engineered persulcatusin with [Mutation R13A, Engineered persulcatusin with [R13A]]",+
19,C15A: persulcatusin (SEQ ID NO: 1) alanine-scan variant C15A (GFGCPFNQGACHRHARSIGRRGGYCAGLFKQTCTCYSR; listed as Ixodes persulcatus) [Mutation C15A],−
20,"Engineered persulcatusin with [Mutation F29A, Engineered persulcatusin with [F29A]]",+
21,T32A: persulcatusin (SEQ ID NO: 1) alanine-scan variant T32A (GFGCPFNQGACHRHCRSIGRRGGYCAGLFKQACTCYSR; listed as Ixodes persulcatus) [Mutation T32A],−
22,G22A: persulcatusin (SEQ ID NO: 1) alanine-scan variant G22A (GFGCPFNQGACHRHCRSIGRRAGYCAGLFKQTCTCYSR; listed as Ixodes persulcatus) [Mutation G22A],−
23,C25A: persulcatusin (SEQ ID NO: 1) alanine-scan variant C25A (GFGCPFNQGACHRHCRSIGRRGGYAAGLFKQTCTCYSR; listed as Ixodes persulcatus) [Mutation C25A],−
24,C35A: persulcatusin (SEQ ID NO: 1) alanine-scan variant C35A (GFGCPFNQGACHRHCRSIGRRGGYCAGLFKQTCTAYSR; listed as Ixodes persulcatus) [Mutation C35A],−
25,H14A: persulcatusin (SEQ ID NO: 1) alanine-scan variant H14A (GFGCPFNQGACHRACRSIGRRGGYCAGLFKQTCTCYSR; listed as Ixodes persulcatus) [Mutation H14A],−
26,G23A: persulcatusin (SEQ ID NO: 1) alanine-scan variant G23A (GFGCPFNQGACHRHCRSIGRRGAYCAGLFKQTCTCYSR; listed as Ixodes persulcatus) [Mutation G23A],−
27,"Engineered persulcatusin with [Mutation L28A, Engineered persulcatusin with [L28A]]",+
28,"Engineered persulcatusin with [Mutation R20A, Engineered persulcatusin with [R20A]]",+
29,G1A: persulcatusin (SEQ ID NO: 1) alanine-scan variant G1A (AFGCPFNQGACHRHCRSIGRRGGYCAGLFKQTCTCYSR; listed as Ixodes persulcatus) [Mutation G1A],−

# Same assay, conditions: random mutagenesis clones of persulcatusin; increase of growth inhibition zones
row,Substance,Increase in Activity
1,"Engineered persulcatusin with [Mutation S7-140-42, Engineered persulcatusin with [N7D/F29L]]",++
2,"Engineered persulcatusin with [Mutation S7-176-5-1, Engineered persulcatusin with [F6L/G9D/R20K]]",++
3,"Engineered persulcatusin with [Mutation S7-140-9, Engineered persulcatusin with [A26D]]",+
4,"Engineered persulcatusin with [Mutation S7-192-22, Engineered persulcatusin with [F6L/N7D/H14Q]]",++
5,"Engineered persulcatusin with [Mutation S-176-2-1, Engineered persulcatusin with [F6V/R13S]]",++
6,"Engineered persulcatusin with [Mutation S7-140-1, Engineered persulcatusin with [R13S/I18N]]",+
7,"Engineered persulcatusin with [Mutation S7-144-43, Engineered persulcatusin with [R13S/L28M]]",+
8,"Engineered persulcatusin with [Mutation S7-156-36, Engineered persulcatusin with [F6S/R13S/R16K/I18V]]",++
9,"Engineered persulcatusin with [Mutation S7-140-34, Engineered persulcatusin with [R13S/R20T]]",++
10,"Engineered persulcatusin with [Mutation S7-144-4, Engineered persulcatusin with [G9D/R20S]]",++
11,"Engineered persulcatusin with [Mutation S7-192-4, Engineered persulcatusin with [N7D/H14F/R16S]]",++
12,"Engineered persulcatusin with [Mutation S7-192-7, Engineered persulcatusin with [G9D/H14Q]]",++
13,"Engineered persulcatusin with [Mutation S7-140-8, Engineered persulcatusin with [R21G]]",+
14,"Engineered persulcatusin with [Mutation S7-140-2, Engineered persulcatusin with [R13S]]",+
15,"Engineered persulcatusin with [Mutation S7-144-75, Engineered persulcatusin with [R13S/A26D]]",++
16,"Engineered persulcatusin with [Mutation S7-176-3-1, Engineered persulcatusin with [R13S/R21S]]",++
17,"Engineered persulcatusin with [Mutation S7-176-4-1, Engineered persulcatusin with [F6V/R13S/A26D]]",++
18,"Engineered persulcatusin with [Mutation S7-140-18, Engineered persulcatusin with [N7D/R16S]]",+
19,"Engineered persulcatusin with [Mutation S7-144-11, Engineered persulcatusin with [R16S/R20S]]",++
20,"Engineered persulcatusin with [Mutation S7-144-59, Engineered persulcatusin with [R13S/R16K]]",+
21,"Engineered persulcatusin with [Mutation S7-156-22, Engineered persulcatusin with [G9D/I18F/F29L]]",+
